{"source": "paper PMC10802587", "about": "(bioRxiv, 2024)", "key": {"W2 ring stage cultures [1]": {"system": "W2 ring stage cultures", "conditions": "ref Yoo et al., 2020; cited from earlier work"}, "[2]": {"system": "global palmitoylation in infected red blood cells", "assay": "Global palmitoylation", "format": "cell-based, P. falciparum", "conditions": "after 16 hours 17-ODYA incubation"}, "[3]": {"system": "synchronized ring stage W2 parasites", "assay": "72-hour parasite growth", "format": "cell-based, P. falciparum", "conditions": "for EC50: Plasmodium falciparum"}, "hMAGL": {"target": "T1, hMAGL (Homo sapiens, UniProt Q99685)", "T1 sequence (Q99685 1-303)": "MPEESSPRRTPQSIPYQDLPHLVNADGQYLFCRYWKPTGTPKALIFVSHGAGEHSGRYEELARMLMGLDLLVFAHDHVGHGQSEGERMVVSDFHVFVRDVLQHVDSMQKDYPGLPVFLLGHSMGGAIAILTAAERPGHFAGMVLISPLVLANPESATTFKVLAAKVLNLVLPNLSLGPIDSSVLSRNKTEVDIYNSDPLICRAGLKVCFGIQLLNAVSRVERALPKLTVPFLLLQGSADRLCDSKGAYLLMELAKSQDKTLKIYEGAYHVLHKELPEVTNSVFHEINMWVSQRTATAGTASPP", "assay": "hMAGL inhibition assay", "format": "biochemical"}, "recombinant PfMAGL": {"target": "recombinant PfMAGL (Plasmodium falciparum, UniProt Q8IJ22)", "sequence (Q8IJ22 1-359)": "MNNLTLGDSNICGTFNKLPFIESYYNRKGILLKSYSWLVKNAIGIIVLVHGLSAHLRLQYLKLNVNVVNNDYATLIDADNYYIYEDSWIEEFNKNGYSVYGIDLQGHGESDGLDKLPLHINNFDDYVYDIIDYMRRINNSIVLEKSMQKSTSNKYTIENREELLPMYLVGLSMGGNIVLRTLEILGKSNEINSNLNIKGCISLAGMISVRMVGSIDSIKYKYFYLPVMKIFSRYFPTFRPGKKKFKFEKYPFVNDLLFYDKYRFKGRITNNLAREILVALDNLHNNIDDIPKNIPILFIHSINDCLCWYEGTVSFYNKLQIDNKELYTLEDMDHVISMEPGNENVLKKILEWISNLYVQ", "format": "biochemical, P. falciparum"}, "W2 ring stage cultures [4]": {"system": "W2 ring stage cultures", "assay": "Stage specific killing assay", "format": "cell-based, P. falciparum", "conditions": "10 μM, ring stage W2 parasites, smears every twelve hours"}, "3D7 ring-stage parasites [5]": {"system": "3D7 ring-stage parasites", "conditions": "known fast, medium, slow acting inhibitors; ref Sanz et al., 2012; cited from earlier work"}, "[6]": {"system": "SalA resistant Dd2-Polδ lines (PRELI domain-containing protein mutants)", "assay": "In vitro drug susceptibility assay, SalA selected PRELI mutant lines", "format": "cell-based, P. falciparum"}, "[7]": {"system": "Human Foreskin Fibroblasts", "assay": "Human cell cytotoxicity assay", "format": "cell-based", "conditions": "at concentrations up to 50 μM, 72 h, HFF"}, "[8]": {"system": "abH112 cKD and control NF54 parasites", "assay": "Susceptibility of abH112 cKD and NF54 parasites +/- aTC", "format": "cell-based, P. falciparum", "conditions": "presence and absence of aTC"}, "parasite food vacuole": {"system": "parasite food vacuole", "assay": "Food vacuole visualization", "format": "cell-based, P. falciparum", "conditions": "5 μM for 16 hrs; reduction not significant"}, "[9]": {"system": "synchronized W2 ring stage parasites", "assay": "Lipidomic analysis of treated parasites", "format": "cell-based, P. falciparum", "conditions": "900 nM, 24 hours versus DMSO (Figure 5B)"}, "3D7 ring-stage parasites [10]": {"system": "3D7 ring-stage parasites", "assay": "P. falciparum rate of kill assay", "format": "cell-based", "conditions": "compared with chloroquine, pyrimethamine, atovaquone"}, "[11]": {"conditions": "72 h, read-out: EC50 parasite growth"}}, "note": "Entries after “also recorded” stand apart in the source; their conditions may differ. Like-named read-outs stand apart in the source and are kept apart here."}
{"molecule": "CCCCCCCCCCC[C@@H](C[C@@H]1OC(=O)[C@H]1CCCCCC)OC(=O)[C@H](CC(C)C)NC=O", "note": "[Orlistat]", "values": [{"measurement": "blood stage where progression is blocked", "setting": "W2 ring stage cultures [1]", "value": "block progression at the late schizont stage"}]}
{"molecule": "CCCCCCCCCCCCCCC(Br)C(=O)O", "note": "(stereo not drawn) [Compound 2-BP, 2-bromopalmitate, reference compound]", "values": [{"measurement": "changes in global palmitoylation", "setting": "[2]", "value": "changes in patterns of palmitoylation"}]}
{"molecule": "C#CCCCCP(=O)(OCC)Oc1ccc(S(=O)(=O)F)cc1", "note": "(stereo not drawn) [Compound 2]", "values": [{"measurement": "EC50", "setting": "[3]; [11]", "value": 1600, "unit": "nM"}, {"measurement": "potency against hMAGL (in words)", "setting": "hMAGL", "value": "highest potency"}]}
{"molecule": "CCCCCCCCCCCCCCCP(=O)(OCC)Oc1c(F)cccc1F", "note": "(stereo not drawn) [Compound 21]", "values": [{"measurement": "potency against recombinant PfMAGL (in words)", "setting": "recombinant PfMAGL", "value": "picomolar inhibitors; also recorded: pM inhibitors"}, {"measurement": "parasite killing", "setting": "[3]; at concentrations up to 20 μM, 72 hours, W2", "value": "no killing"}, {"measurement": "blood stage where growth was arrested", "setting": "W2 ring stage cultures [4]", "value": "progressed through the blood stage lifecycle"}, {"measurement": "changes in global palmitoylation", "setting": "[2]", "value": "did not observe any changes in global palmitoylation"}]}
{"molecule": "CCc1nc(N)nc(N)c1-c1ccc(Cl)cc1", "note": "[pyrimethamine]", "values": [{"measurement": "rate of kill class of known inhibitors", "setting": "3D7 ring-stage parasites [5]", "value": "medium"}]}
{"molecule": "CCCCCCCCCCCCCCCP(=O)(OCC)Oc1cc(F)cc(F)c1", "note": "(stereo not drawn) [Compound 22]", "values": [{"measurement": "potency against recombinant PfMAGL (in words)", "setting": "recombinant PfMAGL", "value": "picomolar inhibitors; also recorded: pM inhibitors"}, {"measurement": "increase in EC50, PRELI mutant parasites compared to Dd2-Polδ parental line", "setting": "[6]", "value": "7–10 fold"}, {"measurement": "impact on mammalian cell viability", "setting": "[7]", "value": "no impact on mammalian cell viability"}, {"measurement": "rescue of killing phenotype by palmitate and oleate supplementation", "setting": "[3]; 5 µM compound, 30 µM palmitate, oleate or both, 72 hours", "value": "did not rescue"}, {"measurement": "drop in potency, 1 hour pulse compared to continuous treatment", "setting": "[3]; 1 hour treatment followed by washout", "value": "ten-fold drop in potency"}, {"measurement": "EC50", "setting": "[3]; [11]", "value": 188, "unit": "nM"}, {"measurement": "EC50", "setting": "[3]; read-out: EC50 after 1 hour treatment and washout", "value": 1330, "unit": "nM"}, {"measurement": "effect of abH112 knockdown on parasite susceptibility to compound", "setting": "[8]", "value": "did not affect parasite susceptibility"}, {"measurement": "food vacuole size", "setting": "parasite food vacuole", "value": "small reduction in food vacuole size"}, {"measurement": "changes in lipid classes", "setting": "[9]", "value": "downregulation of both ceramides and diacylglycerides"}, {"measurement": "blood stage where growth was arrested", "setting": "W2 ring stage cultures [4]", "value": "arrested in growth at 24 hours"}, {"measurement": "changes in global palmitoylation", "setting": "[2]", "value": "did not observe any changes in global palmitoylation"}, {"measurement": "rate of kill (in words)", "setting": "3D7 ring-stage parasites [10]", "value": "faster than pyrimethamine, but not as fast as chloroquine"}]}
{"molecule": "CCN(CC)CCCC(C)Nc1ccnc2cc(Cl)ccc12", "note": "(stereo not drawn) [chloroquine]", "values": [{"measurement": "rate of kill class of known inhibitors", "setting": "3D7 ring-stage parasites [5]", "value": "fast"}]}
{"molecule": "O=C1C(O)=C([C@H]2CC[C@H](c3ccc(Cl)cc3)CC2)C(=O)c2ccccc21", "note": "[atovaquone]", "values": [{"measurement": "rate of kill class of known inhibitors", "setting": "3D7 ring-stage parasites [5]", "value": "slow"}]}
